The values below are quoted from earlier work in patent publication US20190125940A1, “STENTS FOR THE RELEASE OF ACTIVE PRINCIPLES” (CID S.p.A., priority 2016, published 2019).

For this data set the following is noted: related to complete in vitro release at 30 hours; Eurointervention 2012; 7:1087-1094.

Each structure is given as a SMILES string.

`CO[C@H]1C[C@@H]2CC[C@@H](C)[C@@](O)(O2)C(=O)C(=O)N2CCCC[C@H]2C(=O)O[C@H]([C@H](C)C[C@@H]2CC[C@@H](O)[C@H](OC)C2)CC(=O)[C@H](C)/C=C(\C)[C@@H](O)[C@@H](OC)C(=O)[C@H](C)C[C@H](C)/C=C/C=C/C=C/1C` [Sirolimus]: the “in vivo release after coronary implantation” value is on record as “greater than 30 days”.
